Data published in patent publication US20170065730A1, “COMPOSITION FOR IMAGING ATHEROSCLEROSIS AND METHOD FOR DIAGNOSING ATHEROSCLEROSIS BY USING SAME” (priority 2014, published 2017).

Tested on: atherosclerotic site of the aorta
Assay: Fluorescence imaging of aorta sections after ear vein injection of RITC-MSA or RITC
Format: in vivo
Settings: cholesterol diet rabbit, 10 minutes after ear vein injection
Description: Ten 12-week-old normal rabbits (New Zealand White rabbits) were used for experiment. They were randomly divided into two groups of 5 rabbits. One group was given a normal diet and the other group was given a diet containing 1% cholesterol. The animals were kept under a standardized condition (21° C., 41-62% humidity) with regular light/dark (10/14 hr) cycles and were given free access to water and feed. 3 months later, after intravenously injecting 1 mCi of ^68Ga-MSA under anesthesia, positron emission tomography was performed on the whole body for 10 minutes from 10 minutes after the injection (FIGS. 5 and 6). On the next day, the rabbits were anesthetized and RITC-MSA (42 μg/0.1 mL) or RITC mixed in 0.9% physiological saline was injected into the ear vein of the rabbits. 10 minutes later, the rabbits were euthanized and the aorta was cut and kept at −20° C. The aorta sections were fixed at room temperature for 30 minutes in a 4% (v/v) buffered formalin solution, washed with cold PBS (pH 7.4), embedded in optimum cutting temperature compound (OCT, Sakura, Tokyo) and kept at −80° C. after a day for tissue penetration. Tissue slices cut to a thickness of […] were mounted on slides together with poly-D-lysine and then kept at room temperature until use after drying at 45° C. in the shade. […]

rhodamine B isothiocyanate [RITC]
fluorescence / binding at the atherosclerotic site of the aorta: cannot be observed
